One assay concerns the target Cbl-b (Homo sapiens (Human), UniProt Q13191). Nature of the assay: Cbl-b LCK Ub TR-FRET assay (Cbl-b Lck HTRF). The format is biochemical. Summed up: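 Biotin-Cbl-b preincubated with compound (10-point 3-fold series) 60 min, then His-LCK with 1 mM ATP (2× mixture) added for 90 min at room temperature. Ubiquitination detected by TR-FRET using HA-ubiquitin/UBE2D2 adduct, anti-HA-D2 and streptavidin-Eu; IC50 normalised to no-LCK and DMSO controls.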

The target in the next assay is c-Cbl (Homo sapiens (Human), UniProt P22681). Nature of the assay: C-Cbl LCK Ub TR-FRET assay (c-cbl Lck HTRF). The settings on record: for (fold-selectivity): C-cbl Lck HTRF IC50 relative to Cbl-b Lck HTRF IC50. In kind it is biochemical. The procedure, abridged:
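Signal is read once the detection mix has stood 20 min at ambient temperature. Curves are anchored by DMSO as maximum and by omission of LCK as minimum.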
Background: In TR-FRET formats the signal depends on donor and acceptor labels being close together.

From patent US20250230147A1, “LACTAMS AS CBL-B INHIBITORS” (Genentech, Inc., priority 2021, published 2025) come the findings set out here.

A word on the IC50: it is the concentration that inhibits the measured activity by half.

Chain of Cbl-b (Q13191 40-426): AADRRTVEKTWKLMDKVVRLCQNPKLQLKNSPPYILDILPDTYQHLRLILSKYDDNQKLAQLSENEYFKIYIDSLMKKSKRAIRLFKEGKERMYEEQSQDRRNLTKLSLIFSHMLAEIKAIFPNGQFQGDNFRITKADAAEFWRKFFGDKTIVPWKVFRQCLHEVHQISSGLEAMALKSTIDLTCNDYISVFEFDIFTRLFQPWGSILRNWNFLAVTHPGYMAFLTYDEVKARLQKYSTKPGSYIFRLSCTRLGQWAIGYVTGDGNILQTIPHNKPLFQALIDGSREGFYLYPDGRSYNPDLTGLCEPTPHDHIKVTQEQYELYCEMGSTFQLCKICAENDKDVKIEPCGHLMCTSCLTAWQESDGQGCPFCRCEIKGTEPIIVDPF
Chain of c-Cbl (P22681 47-435): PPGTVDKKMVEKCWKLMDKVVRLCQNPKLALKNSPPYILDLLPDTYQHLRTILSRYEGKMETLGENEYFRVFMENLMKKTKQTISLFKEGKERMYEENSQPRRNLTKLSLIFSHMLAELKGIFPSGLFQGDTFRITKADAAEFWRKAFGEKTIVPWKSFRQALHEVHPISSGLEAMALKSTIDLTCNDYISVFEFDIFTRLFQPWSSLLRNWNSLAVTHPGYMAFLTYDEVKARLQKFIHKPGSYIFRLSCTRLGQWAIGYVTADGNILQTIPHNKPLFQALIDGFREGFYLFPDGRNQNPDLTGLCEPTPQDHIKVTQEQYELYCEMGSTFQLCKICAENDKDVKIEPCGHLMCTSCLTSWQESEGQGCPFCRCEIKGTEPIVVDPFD

Turning to `Cn1cnnc1CC1(c2cccc(N3Cc4c(cc(CN5CCC[C@](C)(O)C5)cc4C(F)(F)F)C3=O)c2)CC(F)(F)C1` [Compound 440, (S)-2-(3-(3,3-difluoro-1-((4-methyl-4H-1,2,4-triazol-3-yl)methyl)cyclobutyl)phenyl)-6-((3-hydroxy-3-methylpiperidin-1-yl)methyl)-4-(trifluoromethyl)isoindolin-1-one], the IC50 against Cbl-b was found to be 140 nM; at c-Cbl, 110 nM. Also, the “(fold-selectivity)” value on c-Cbl was “(0.79x)”.

Compound `CNCc1cc2c(c(C(F)(F)F)c1)CN(c1cccc(C3([C@@H](F)c4nncn4C)COC3)c1)C2=O` [Compound 212, (R)-2-(3-(3-(fluoro(4-methyl-4H-1,2,4-triazol-3-yl)methyl)oxetan-3-yl)phenyl)-6-((methylamino)methyl)-4-(trifluoromethyl)isoindolin-1-one] returned an IC50 against Cbl-b of 75 nM. For the same compound, at c-Cbl, the half-maximal inhibitory concentration (IC50) worked out at 130 nM and the “(fold-selectivity)” value was found to be 1.7 x.

At Cbl-b, `Cn1cnnc1[C@@H](F)C1(c2cccc(N3Cc4c(cc(CN5CC(C)(O)C5)cc4C(F)(F)F)C3=O)c2)COC1` [Compound 162, (S)-2-(3-(3-(fluoro(4-methyl-4H-1,2,4-triazol-3-yl)methyl)oxetan-3-yl)phenyl)-6-((3-hydroxy-3-methylazetidin-1-yl)methyl)-4-(trifluoromethyl)isoindolin-1-one] had an IC50 of 190 nM. On c-Cbl, the IC50 is 330 nM and the “(fold-selectivity)” value turned out to be 1.7x.

In the case of `CC(C)Nc1cc(N2Cc3c(cc(CNC4(C)CCC4)cc3C(F)(F)F)C2=O)cc(C2(Cc3nncn3C)CCC2)c1` [Compound 462, 2-(3-(isopropylamino)-5-(1-((4-methyl-4H-1,2,4-triazol-3-yl)methyl)cyclobutyl)phenyl)-6-(((1-methylcyclobutyl)amino)methyl)-4-(trifluoromethyl)isoindolin-1-one], the midpoint of inhibition at Cbl-b, the IC50, lay at 8.3 nM. For the same compound, at c-Cbl, 7.9 nM corresponded to half-maximal inhibition (IC50) and the “(fold-selectivity)” value was “(0.95x)”.

Take `Cn1cnnc1CC1(c2cccc(N3Cc4c(cc(CNC(C)(C)CF)cc4C(F)(F)F)C3=O)c2)CC(F)(F)C1` [Compound 372, 2-(3-(3,3-difluoro-1-((4-methyl-4H-1,2,4-triazol-3-yl)methyl)cyclobutyl)phenyl)-6-(((1-fluoro-2-methylpropan-2-yl)amino)methyl)-4-(trifluoromethyl)isoindolin-1-one]: the half-inhibitory concentration (IC50) on Cbl-b was determined as 28 nM; against c-Cbl, 34 nM. Besides, the “(fold-selectivity)” value on c-Cbl is “(1.2x)”.

With `Cn1cnnc1[C@@H](F)C1(c2cccc(N3Cc4c(cc(CNCCCF)cc4C(F)(F)F)C3=O)c2)CC(F)(F)C1` [Compound 448, (S)-2-(3-(3,3-difluoro-1-(fluoro(4-methyl-4H-1,2,4-triazol-3-yl)methyl)cyclobutyl)phenyl)-6-(((3-fluoropropyl)amino)methyl)-4-(trifluoromethyl)isoindolin-1-one], half-maximal inhibition against Cbl-b (IC50) required 14 nM. For the same compound, at c-Cbl, the IC50 amounted to 16 nM and the “(fold-selectivity)” value was “(1.1x)”.

For `Cn1cnnc1[C@@H](F)C1(c2cccc(N3Cc4c(cc(CN5CC6(CCC6)C5)cc4C(F)(F)F)C3=O)c2)COC1` [Compound 166, (S)-6-(2-azaspiro[3.3]heptan-2-ylmethyl)-2-(3-(3-(fluoro(4-methyl-4H-1,2,4-triazol-3-yl)methyl)oxetan-3-yl)phenyl)-4-(trifluoromethyl)isoindolin-1-one], the IC50 at Cbl-b was determined as 170 nM; on c-Cbl, 310 nM. On c-Cbl, the “(fold-selectivity)” value came to 1.8x.

For `Cn1cnnc1[C@@H](F)C1(c2cccc(N3Cc4c(cc(CN5CCC(C)(O)CC5)cc4C(F)(F)F)C3=O)c2)COC1` [Compound 142, (S)-2-(3-(3-(fluoro(4-methyl-4H-1,2,4-triazol-3-yl)methyl)oxetan-3-yl)phenyl)-6-((4-hydroxy-4-methylpiperidin-1-yl)methyl)-4-(trifluoromethyl)isoindolin-1-one], the IC50 on Cbl-b worked out at 230 nM; against c-Cbl it was 430 nM. For the same compound, the “(fold-selectivity)” value on c-Cbl was determined as 1.9x.

Compound `CC(C)[C@H]1CN(C2COC2)CCN1Cc1cc2c(c(C(F)(F)F)c1)CN(c1cccc(C3([C@H](F)c4nncn4C)COC3)c1)C2=O` [Compound 199, 2-(3-(3-((S)-fluoro(4-methyl-4H-1,2,4-triazol-3-yl)methyl)oxetan-3-yl)phenyl)-6-(((S)-2-isopropyl-4-(oxetan-3-yl)piperazin-1-yl)methyl)-4-(trifluoromethyl)isoindolin-1-one] gave a half-inhibitory concentration (IC50) on Cbl-b of 19 nM. At c-Cbl, the IC50 was determined as 56 nM and the “(fold-selectivity)” value is 2.9x.

With `CC(C)[C@H]1CN(C)CCN1Cc1cc2c(c(C(F)(F)F)c1)CN(c1cc(C3([C@@H](F)c4nncn4C)CCC3)cc(NCC3CC3)n1)C2=O` [Compound 278, 2-(6-((cyclopropylmethyl)amino)-4-(1-((R)-fluoro(4-methy-4H-1,2,4-triazol-3-yl)methyl)cyclobutyl)pyridin-2-yl)-6-(((S)-2-isopropyl-4-methylpiperazin-1-yl)methyl)-4-(trifluoromethyl)isoindolin-1-one], half-maximal inhibition on Cbl-b (IC50) required 12 nM. Moreover, at c-Cbl, 15 nM corresponded to half-maximal inhibition (IC50) and the “(fold-selectivity)” value is “(1.2x)”.

At Cbl-b, `CCN1CCN(Cc2cc3c(c(C(F)(F)F)c2)CN(c2cccc(C4([C@@H](F)c5nncn5C)CC(F)(F)C4)c2)C3=O)[C@@H](C(C)C)C1` [Compound 460, 2-(3-(3,3-difluoro-1-((R)-fluoro(4-methyl-4H-1,2,4-triazol-3-yl)methyl)cyclobutyl)phenyl)-6-(((S)-4-ethyl-2-isopropylpiperazin-1-yl)methyl)-4-(trifluoromethyl)isoindolin-1-one] had a 50% inhibitory concentration (IC50) of 14 nM. At c-Cbl, inhibition was half-maximal at 8.4 nM (IC50) and the “(fold-selectivity)” value is “(0.58x)”.

Regarding `CCNc1cc(N2Cc3c(cc(CNCC4CC4)cc3C(F)(F)F)C2=O)cc(C2(Cc3nncn3C)CCC2)c1` [Compound 457, 6-(((cyclopropylmethyl)amino)methyl)-2-(3-(ethylamino)-5-(1-((4-methyl-4H-1,2,4-triazol-3-yl)methyl)cyclobutyl)phenyl)-4-(trifluoromethyl)isoindolin-1-one], at Cbl-b, the IC50 was 17 nM. Further, on c-Cbl, half-maximal inhibition (IC50) was put at 12 nM and the “(fold-selectivity)” value is “(0.71x)”.

As for `CC(C)[C@H]1CN(C)CCN1Cc1cc2c(c(C(F)(F)F)c1)CN(c1cccc(C3([C@H](F)c4nncn4C(F)F)COC3)c1)C2=O` [Compound 268, 2-(3-(3-((S)-(4-(difluoromethyl)-4H-1,2,4-triazol-3-yl)fluoromethyl)oxetan-3-yl)phenyl)-6-(((S)-2-isopropyl-4-methylpiperazin-1-yl)methyl)-4-(trifluoromethyl)isoindolin-1-one], the half-maximal inhibitory concentration (IC50) against Cbl-b worked out at 16 nM. Further, at c-Cbl, it took 11 nM to reach half-maximal inhibition (IC50) and the “(fold-selectivity)” value is “(0.68x)”.

`Cn1cnnc1CC1(c2cc(OC3CCCC3)cc(N3Cc4c(cc(CNC5(C)CCC5)cc4C(F)(F)F)C3=O)c2)CC(F)(F)C1` [Compound 478, 2-(3-(cyclopentyloxy)-5-(3,3-difluoro-1-((4-methyl-4H-1,2,4-triazol-3-yl)methyl)cyclobutyl)phenyl)-6-(((1-methylcyclobutyl)amino)methyl)-4-(trifluoromethyl)isoindolin-1-one] registered an IC50 against Cbl-b of 82 nM. On c-Cbl, the IC50 amounted to 160 nM and the “(fold-selectivity)” value is “(2.0x)”.
